Test results as given in ChEMBL document CHEMBL4431318, “Design, synthesis and biological evaluation of novel 5-fluoro-1H-benzimidazole-4-carboxamide derivatives as potent PARP-1 inhibitors” (Bioorg Med Chem Lett, 2016).

Legend:
[1] = target: T1, Poly [ADP-ribose] polymerase 1 (Homo sapiens, UniProt P09874); assay: Inhibition of PARP1 (unknown origin)
HCT-116 [2] = assay: Cytotoxicity against human HCT116 cells by SRB assay; type: functional, cell-based
[3] = target: T1, Poly [ADP-ribose] polymerase 1; conditions: A549
Description: Inhibition of PARP1 in human A549 cells assessed as potentiation of TMZ-mediated cytotoxicity at 0.5 uM by SRB assay

HCT-116 [4] = assay: Potency index, ratio of IC50 for veliparib to IC50 for test compound against human HCT116 cells; type: functional

T1 sequence (P09874 whole entry): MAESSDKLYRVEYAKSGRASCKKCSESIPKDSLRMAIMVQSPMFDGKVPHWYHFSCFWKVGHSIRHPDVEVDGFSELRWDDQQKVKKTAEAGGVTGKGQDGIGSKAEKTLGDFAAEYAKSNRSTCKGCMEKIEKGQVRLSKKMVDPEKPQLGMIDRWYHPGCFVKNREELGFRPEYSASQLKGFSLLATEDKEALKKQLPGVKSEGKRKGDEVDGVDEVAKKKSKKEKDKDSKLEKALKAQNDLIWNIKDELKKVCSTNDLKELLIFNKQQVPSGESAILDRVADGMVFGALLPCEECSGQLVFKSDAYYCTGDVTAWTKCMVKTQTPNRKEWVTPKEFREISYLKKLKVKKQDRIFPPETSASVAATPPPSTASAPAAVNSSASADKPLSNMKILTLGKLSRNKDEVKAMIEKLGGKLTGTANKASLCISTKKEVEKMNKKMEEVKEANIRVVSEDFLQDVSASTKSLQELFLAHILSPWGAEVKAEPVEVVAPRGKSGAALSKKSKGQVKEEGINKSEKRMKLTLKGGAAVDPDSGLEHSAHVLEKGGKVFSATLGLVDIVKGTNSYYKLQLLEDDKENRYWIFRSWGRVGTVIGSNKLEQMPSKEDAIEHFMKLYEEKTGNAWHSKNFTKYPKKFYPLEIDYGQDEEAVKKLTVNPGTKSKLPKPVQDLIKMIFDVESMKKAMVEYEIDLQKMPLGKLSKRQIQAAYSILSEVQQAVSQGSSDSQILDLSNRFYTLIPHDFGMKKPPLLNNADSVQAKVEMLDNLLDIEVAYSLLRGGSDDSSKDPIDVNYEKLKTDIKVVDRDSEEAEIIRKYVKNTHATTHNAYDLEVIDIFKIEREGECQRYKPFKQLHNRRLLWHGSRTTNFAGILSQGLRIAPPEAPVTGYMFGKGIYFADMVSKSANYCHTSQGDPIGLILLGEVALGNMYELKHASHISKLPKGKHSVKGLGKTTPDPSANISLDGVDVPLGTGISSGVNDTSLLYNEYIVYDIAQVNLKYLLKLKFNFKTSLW

| Structure (SMILES) | IC50 [1] | IC50 (HCT-116 [2]; Homo sapiens, HCT-116) | IC50 (HCT-116 [2]; hct-116) | PF50 [3] | Ratio IC50 (HCT-116 [4]) |
| --- | --- | --- | --- | --- | --- |
| CN1CCC[C@@]1(C)c1nc2c(C(N)=O)c(F)ccc2[nH]1 | 21.7 nM | > 100000 nM |  |  |  |
| CCCN1CCC(c2nc3c(C(N)=O)c(F)ccc3[nH]2)CC1 | 29.8 nM | 65500 nM |  |  |  |
| C[C@]1(c2nc3c(C(N)=O)cccc3[nH]2)CCCN1 [VELIPARIB] |  |  | 64000 nM | 2.2 |  |
| NC(=O)c1c(F)ccc2[nH]c(C3CCCNC3)nc12 (configuration not stated) | 25.8 nM |  |  |  |  |
| NC(=O)c1c(F)ccc2[nH]c(-c3ccc(N4CCOCC4)cc3)nc12 | 21.8 nM | 27000 nM |  |  | 2.3 |
| NC(=O)c1c(F)ccc2[nH]c(-c3ccc(N4CCNCC4)cc3)nc12 | 43.7 nM | 7400 nM |  |  | 8.6 |
| C[C@]1(c2nc3c(C(N)=O)c(F)ccc3[nH]2)CCCN1 | 5.7 nM | > 100000 nM |  |  |  |
| NC(=O)c1c(F)ccc2[nH]c(C3CCNCC3)nc12 | 39.1 nM | > 100000 nM |  |  |  |
